Assay results published in article PMC11961260 (Royal Society Open Science, 2025).
Peptide text beside a SMILES is read from it.

How the values were obtained:
SARS-CoV-2 main protease = details: read-out: IC50 value of the positive control; cited from earlier work
[1] = biological target: T1, SARS-CoV-2 main protease (M^pro) (Severe acute respiratory syndrome coronavirus 2, UniProt P0DTD1); assay: SARS-CoV-2 main protease inhibitor screening assay (Cayman Chemicals, Catalogue Number 701960); format: biochemical; details: for response in SARS-CoV-2 M^pro inhibition screening (in words: active/inactive) / % inhibition of SARS-CoV-2 M^pro: dendron 20 μM; for % inhibition of SARS-CoV-2 M^pro: 30 min pre-incubation, 2 h with substrate, room temperature, three wells
T1 construct: purchased Cayman Chemicals 701960

[2] = no reference given; cited from earlier work
[3] = fluorescence ex 340 nm/em 490 nm

Compound	response in SARS-CoV-2 M^pro inhibition screening (in words: active/inactive) [1]	% inhibition of SARS-CoV-2 M^pro [1, 3] [%]	also measured
CC(C)C[C@H](NC(=O)OCc1ccccc1)C(=O)N[C@@H](CC1CCNC1=O)C(O)S(=O)(=O)O (stereo partly shown) [GC376]	–	–	IC50 (SARS-CoV-2 main protease): 0.15 ± 0.03 µM
O=C(O)CC[C@H](NC(=O)[C@H](Cc1c[nH]c2ccccc12)NC(=O)CC[C@H](NC(=O)CNC(=O)CCN1c2ccccc2Sc2ccccc21)C(=O)N[C@@H](Cc1c[nH]c2ccccc12)C(=O)N[C@@H](CCC(=O)O)C(=O)O)C(=O)O [compound 114, Ptz-GE(WE-COOH)WE-COOH] (HELM PEPTIDE1{[O=C(CCN1c2ccccc2Sc2ccccc21)[*:2]].G.E.W.E}|PEPTIDE2{W.E}$PEPTIDE1,PEPTIDE2,3:R3-1:R1$$$V2.0)	active	33	IC50 ([1]; figure 3B, fluorescence ex 340 nm/em 490 nm): 65 µM
N[C@@H](CCC(=O)O)C(=O)O [glutamic acid]	–	–	pKa1(COOH) [2]: 2.19; pKa2(side chain COOH) [2]: 4.25
Boc-E(WE-COOH)WE-COOH [C91]	non-responsiveness	< 25	–
Ptz-GE(FE-COOH)FE-COOH [compound 112]	active	25	–
Ptz-GE(HE-COOH)HE-COOH [169A]	inactive	< 25	–
Ptz-GE(YE-COOH)YE-COOH [compound 113]	inactive	< 25	–
Ptz-GE(wE-COOH)wE-COOH [169C]	active	31	–
